Read-outs that look alike come from different tables or passages of the source.
Tests used:
NCI-H1975-Luc cells = test: Intracranially implanted NCI-H1975-Luc tumor efficacy study in mice (BLI and survival); format: in vivo
Protocol: N-(2-(2-(Dimethylamino)ethoxy)-4-methoxy-5-((4-(1-methyl-1H-indol-3-yl)pyrimidin-2-yl)amino)phenyl)acrylamide methanesulfonate (1⋅Ms; C27H30N6O3.1.06 CH3SO3H. MW=486.58, FW=588.45, purity=100%) was formulated in a vehicle of 1% polysorbate 80 in water. The complete vehicle was added to the pre-weighed compound to achieve a 5 mg/mL stock solution, suitable for treatment of the 50 mg/kg dose level. The mixture was vortexed for approximately one minute resulting in a light yellow solution with a pH value of 7. The dosing solution was prepared fresh daily.
Female Envigo Nude mice (Hsd:Athymic Nude-Foxn1^nu) were used. They were 6-7 weeks old on Day 1 of the experiment. The animals were fed irradiated Harlan 2918.15 Rodent Diet and water ad libitum. Animals were housed in static cages with Bed-O'Cobs™ bedding inside Biobubble® Clean Rooms that provide H. E. P. A filtered air into the bubble environment at 100 complete air changes per hour. All treatments, body weight determinations, and tumor measurements were carried out in the bubble environment. The environment was controlled to a temperature range of 70±2 OF and a humidity range of 30-70%.
NCI-H1975-Luc cells were obtained from Clovis. They were grown in RPMI 1640 medium which was modified with 1 mM Na pyruvate+2 mM L-glutamine+10 mM HEPES+2.5 g/L glucose+5 ug/mL blasticidin and supplemented with 10% non-heat-inactivated Fetal Bovine Serum (FBS) and 1% 100× Penicillin/Streptomycin/L-Glutamine (PSG). The growth environment was maintained in an incubator with a 5% CO2 atmosphere at 37° C. When expansion was complete, the cells (passage 4) were trypsinized using 0.25% trypsin-EDTA solution. Following cell detachment, the trypsin was inactivated by dilution with complete growth medium and any clumps of cells were separated by pipetting. The cells were centrifuged at 200 ref for 8 minutes at 4° C. the supernatant was aspirated, and the pellet was re-suspended in cold Dulbecco's Phosphate Buffered Saline (DPBS) by pipetting. An aliquot of the homogeneous cell suspension was diluted in a trypan blue solution and counted using a Luna automated cell counter to determine a pre-implantation cell viability. The cell suspension was centrifuged at 200 ref for 8 minutes at 4° C. The supernatant was aspirated and the cell pellet was re-suspended in cold serum-free medium to generate a final concentration of 1.00E+08 trypan-excluding cells/mL. The cell suspension was maintained on wet ice during implantation. Following implantation, an aliquot of the remaining cells was diluted with a trypan blue solution and counted to determine the post-implantation cell viability.
Test mice were implanted intracranially on Day 0 with 1.00E+06 cells per 10 μL as per the protocol (Appendix 1). For aseptic surgical implantation, mice were injected with 0.2 mg/kg buprenorphine and anesthetized using 2% isoflurane in air. The mice were then secured in a stereotaxic frame (ASI instruments, Inc.) using non-rupture ear bars. Ocular ointment was applied to the eyes of the mice to prevent drying during surgery. A re-circulating 37° C. water heated pad was used to maintain the animal's body temperature during the implantation procedure. Once in the stereotaxic frame, the cranium was swabbed with alternating chlorhexidine solution and 70% ethanol-saturated swabs to disinfect the skin surface and prepare for the incision. A 1 cm longitudinal incision was made centrally over bregma of the cranium using a #15 BD scalpel blade. The incision was retracted using small, serrated serrefines. The thin layer of connective tissue covering the surface of the skull was removed using dry cotton swabs under light pressure. Bleeding vessels were cauterized to prevent blood loss. A 0.9 mm drill bit was then centered over bregma, moved 2 mm right lateral, 1 mm anterior to the coronal suture and lowered to score the surface of the skull using the stereotaxic electrode manipulator arm. […]

[1] = test system: kinase domain of the T790M double mutant; test: Inhibition of EGFR T790M double mutant kinase domain; format: biochemical; details: in addition to the activating mutations
[2] = Pharmacokinetics in male SD rats dosed PO (plasma and brain); format: in vivo, rat; details: male SD rats PO 5 mg/kg; for Cmax: 0.5% methylcellulose vehicle; for MRT inf: read-out: MRT0-inf; for MRT last: read-out: MRT0-last
[3] = 50 mg/kg, PO, QD×14 (Days 5-18)

With C=CC(=O)Nc1cc(Nc2nccc(-c3cn(C)c4ccccc34)n2)c(OC)cc1OCCN(C)C [Compound 1] the “% ILS (life-span increase vs. vehicle)” value (NCI-H1975-Luc cells; [3]) was “greater than 100%” and the “inhibition of the kinase domain of the T790M double mutant” value [1] was “effectively inhibits”.
For C=CC(=O)Nc1cc(Nc2nccc(-c3cn(C)c4ccccc34)n2)c(OC)cc1OCCN(C)C [1⋅Ms, N-(2-(2-(Dimethylamino)ethoxy)-4-methoxy-5-((4-(1-methyl-1H-indol-3-yl)pyrimidin-2-yl)amino)phenyl)acrylamide methanesulfonate], the increase in lifespan (NCI-H1975-Luc cells; [3]) was 15 days, the “BLI derived Day 13 % T/C” value (NCI-H1975-Luc cells; 50 mg/kg, PO, QD×14 (Days 5-18), median BLI signal treated/control ×100, P<0.05) was 1% and the “% ILS (life-span increase vs. vehicle)” value (NCI-H1975-Luc cells; 50 mg/kg, PO, QD×14 (Days 5-18), methanesulfonate) was 107%. The median lifespan (NCI-H1975-Luc cells; 50 mg/kg, PO, QD×14 (Days 5-18), p<0.001) was 29.0 days, the tolerability of treatment (NCI-H1975-Luc cells; 50 mg/kg, PO, QD×14 in nude mice) was “well-tolerated” and the “animals with complete regressions” value (NCI-H1975-Luc cells; By Day 18, 50 mg/kg PO QD×14, CR = BLI below 2.0E+05 photons/sec) was “none”. The “animals with partial tumor regressions” value (NCI-H1975-Luc cells; By Day 18, 50 mg/kg PO QD×14, PR = ≥50% decrease in tumor BLI signal) was 100%, the AUC0-inf ([2]; Brain) was 5085 ng·h/g and the AUC0-last ([2]; Brain) was 5047 ng·h/g. For the same compound, the AUCExtra ([2]; Brain) was 0.746%, the AUMCExtra ([2]; Brain) was 2.57% and the Tlast ([2]; Brain) was 18.0 h. For the same compound, the AUCExtra ([2]; Plasma) was 0.593%, the AUMCExtra ([2]; Plasma) was 2.42% and the Tlast ([2]; Plasma) was 18.0 h. The Kp ([2]; rat, Brain (vs plasma), read-out: AUC Ratio) was 9.44, the Tmax ([2]; rat, Brain) was 2 h and the half-life ([2]; rat, Brain) was 2.01 h. It also gave a Cmax ([2]; rat, Brain) of 606 ng/g, an MRT inf ([2]; rat, Brain) of 6.07 h and an MRT last ([2]; rat, Brain) of 5.95 h. For the same compound, the AUC(0-t) ([2]; rat, Plasma) was 535 ng·h/mL, the Tmax ([2]; rat, Plasma) was 2 h and the half-life ([2]; rat, Plasma) was 1.97 h. It also gave a Cmax ([2]; rat, Plasma) of 96.3 ng/mL, an AUC0-inf ([2]; rat, Plasma, read-out: AUC0-inf) of 538 ng·h/mL and an MRT inf ([2]; rat, Plasma) of 5.1 h. The MRT last ([2]; rat, Plasma) was 5.01 h.

Reference: patent publication US11052086B2, “2-anilinopyrimidine derivatives as therapeutic agents for treatment of brain cancers” (Beta Pharma, Inc., priority 2016, dated 2021)
